Measured values: ChEMBL document CHEMBL1201862, “PubChem BioAssay data set” (2004)
Values belong to the compound of their own block, whether it stands above or below them. Calls of active or inactive are those of the source.

Assays:
[1] = test system: Escherichia coli; test: microbe, parasite or virus in culture
[2] = biological target: T1, Short transient receptor potential channel 4 (Mus musculus, UniProt Q9QUQ5); test: block of DAMGO-driven TRPC4 calcium entry – cell-based, HEK293 TRPC4/mu-opioid, Fluo-4 calcium, dose response (AID 434942); type: functional;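 also: potency of inhibitors blocking the TRPC4 calcium response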
T1 sequence (Q9QUQ5 whole entry): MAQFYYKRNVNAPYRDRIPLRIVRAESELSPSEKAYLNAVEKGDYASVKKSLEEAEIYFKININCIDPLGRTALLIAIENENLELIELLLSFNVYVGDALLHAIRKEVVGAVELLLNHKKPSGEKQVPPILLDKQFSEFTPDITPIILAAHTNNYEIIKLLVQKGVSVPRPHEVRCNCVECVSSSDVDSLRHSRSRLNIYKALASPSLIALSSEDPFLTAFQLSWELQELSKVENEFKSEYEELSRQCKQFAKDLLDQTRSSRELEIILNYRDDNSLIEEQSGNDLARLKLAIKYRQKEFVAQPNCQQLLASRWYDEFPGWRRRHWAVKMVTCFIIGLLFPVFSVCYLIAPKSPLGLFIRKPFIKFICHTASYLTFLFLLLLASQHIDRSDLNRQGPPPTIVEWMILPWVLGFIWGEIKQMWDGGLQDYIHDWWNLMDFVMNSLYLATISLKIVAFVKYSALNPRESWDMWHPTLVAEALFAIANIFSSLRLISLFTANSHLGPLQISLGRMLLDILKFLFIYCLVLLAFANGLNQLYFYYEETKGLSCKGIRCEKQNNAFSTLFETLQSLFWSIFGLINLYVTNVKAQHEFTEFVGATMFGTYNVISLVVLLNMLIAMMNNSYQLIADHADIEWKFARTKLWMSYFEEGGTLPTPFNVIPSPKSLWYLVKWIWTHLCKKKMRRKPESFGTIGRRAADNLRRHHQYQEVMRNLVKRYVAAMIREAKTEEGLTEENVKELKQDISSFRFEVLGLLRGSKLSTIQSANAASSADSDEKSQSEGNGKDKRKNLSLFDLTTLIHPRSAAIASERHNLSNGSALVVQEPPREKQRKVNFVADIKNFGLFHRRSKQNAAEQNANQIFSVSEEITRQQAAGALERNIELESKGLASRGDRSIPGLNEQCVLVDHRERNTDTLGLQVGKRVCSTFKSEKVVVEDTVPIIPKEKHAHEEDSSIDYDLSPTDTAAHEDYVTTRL

[3] = test system: Escherichia coli; test: microbe, parasite or virus in culture; remark: listed apart in the source
[4] = biological target: T2, Corticotropin-releasing factor receptor 2/Corticotropin-releasing factor-binding protein (Homo sapiens, UniProt P24387+Q13324); test: activators of CRF receptor 2 with binding protein – uHTS hits, confirmation (AID 602473); type: functional; conditions: read-out: EC50_Mean
T2 sequence (Q13324 whole entry): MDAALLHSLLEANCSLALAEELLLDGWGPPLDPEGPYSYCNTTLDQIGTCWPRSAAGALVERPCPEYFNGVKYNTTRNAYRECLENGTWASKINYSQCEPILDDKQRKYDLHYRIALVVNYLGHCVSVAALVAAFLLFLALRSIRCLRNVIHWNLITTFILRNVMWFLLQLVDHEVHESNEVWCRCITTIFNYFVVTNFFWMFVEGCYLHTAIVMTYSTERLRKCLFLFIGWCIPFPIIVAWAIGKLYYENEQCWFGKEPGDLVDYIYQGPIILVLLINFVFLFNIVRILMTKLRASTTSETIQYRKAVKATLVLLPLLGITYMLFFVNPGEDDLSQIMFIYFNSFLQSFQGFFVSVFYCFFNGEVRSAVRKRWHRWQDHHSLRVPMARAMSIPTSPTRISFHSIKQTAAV
T2 sequence (P24387 whole entry): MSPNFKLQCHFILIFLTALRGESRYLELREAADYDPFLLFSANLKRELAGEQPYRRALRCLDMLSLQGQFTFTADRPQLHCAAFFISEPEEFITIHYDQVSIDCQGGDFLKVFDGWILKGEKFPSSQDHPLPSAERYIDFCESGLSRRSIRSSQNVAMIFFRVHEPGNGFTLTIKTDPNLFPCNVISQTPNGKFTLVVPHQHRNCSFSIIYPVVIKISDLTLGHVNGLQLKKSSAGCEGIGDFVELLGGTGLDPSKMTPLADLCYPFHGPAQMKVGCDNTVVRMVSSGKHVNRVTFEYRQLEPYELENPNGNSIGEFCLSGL

[5] = biological target: Troponin, cardiac muscle (Homo sapiens, UniProt P19429+P45379+P63316); test: Fluorescence-based biochemical high throughput dose response assay for activators of the calcium sensitivity of cardiac Regulated Thin Filaments (RTF). [Related pubchem assays (depositor defined):AID493008, AID493018, AID504382, AID504383]; type: protein-complex assay
[6] = biological target: T3, Cytochrome P450 3A4 (Homo sapiens, UniProt P08684);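 also: CYP3A4 tested as one member of a cytochrome P450 panel screen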
T3 sequence (P08684 whole entry): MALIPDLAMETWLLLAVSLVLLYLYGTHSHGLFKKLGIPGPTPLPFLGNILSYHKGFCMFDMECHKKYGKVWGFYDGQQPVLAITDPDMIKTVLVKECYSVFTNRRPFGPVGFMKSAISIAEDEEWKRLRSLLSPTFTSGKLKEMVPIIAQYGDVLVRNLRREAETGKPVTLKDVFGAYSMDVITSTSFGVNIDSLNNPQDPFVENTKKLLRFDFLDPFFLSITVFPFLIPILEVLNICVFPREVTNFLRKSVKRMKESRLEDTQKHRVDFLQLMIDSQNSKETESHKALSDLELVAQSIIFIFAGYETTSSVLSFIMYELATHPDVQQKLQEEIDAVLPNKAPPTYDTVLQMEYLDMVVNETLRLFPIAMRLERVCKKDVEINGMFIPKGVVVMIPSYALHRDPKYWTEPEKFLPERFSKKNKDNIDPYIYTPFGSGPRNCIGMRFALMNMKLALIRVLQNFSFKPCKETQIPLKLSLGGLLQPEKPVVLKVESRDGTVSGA

[7] = biological target: Mu-type opioid receptor (Homo sapiens, UniProt P35372); test: (§1) Counterscreen for agonists of heterodimerization of the mu 1 (OPRM1) and delta 1 (OPRD1) opioid receptors: Luminescence-based cell-based high throughput dose response assay to identify agonists of OPRM1 homodimerization.; type: functional
Sequence of Mu-type opioid receptor (P35372 whole entry): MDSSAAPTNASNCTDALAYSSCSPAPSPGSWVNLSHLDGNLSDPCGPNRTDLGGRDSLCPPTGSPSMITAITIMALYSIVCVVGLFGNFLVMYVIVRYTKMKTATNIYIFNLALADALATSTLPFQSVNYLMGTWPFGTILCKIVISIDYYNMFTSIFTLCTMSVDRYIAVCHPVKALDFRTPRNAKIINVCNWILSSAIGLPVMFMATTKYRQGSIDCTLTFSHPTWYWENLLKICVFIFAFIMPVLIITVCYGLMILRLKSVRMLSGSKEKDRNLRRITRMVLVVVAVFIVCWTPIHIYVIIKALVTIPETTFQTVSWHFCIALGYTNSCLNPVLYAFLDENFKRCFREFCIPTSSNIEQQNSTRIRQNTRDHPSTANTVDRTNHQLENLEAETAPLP

[8] = biological target: Delta-type opioid receptor (Homo sapiens, UniProt P41143); test: as §1, with “of OPRD1” for “of OPRM1”, “homodimerization. [Related pubchem assays (depositor defined):AID504326, AID504355, AID504692, AID504904, AID504905]” for “homodimerization.”; type: functional
Sequence of Delta-type opioid receptor (P41143 whole entry): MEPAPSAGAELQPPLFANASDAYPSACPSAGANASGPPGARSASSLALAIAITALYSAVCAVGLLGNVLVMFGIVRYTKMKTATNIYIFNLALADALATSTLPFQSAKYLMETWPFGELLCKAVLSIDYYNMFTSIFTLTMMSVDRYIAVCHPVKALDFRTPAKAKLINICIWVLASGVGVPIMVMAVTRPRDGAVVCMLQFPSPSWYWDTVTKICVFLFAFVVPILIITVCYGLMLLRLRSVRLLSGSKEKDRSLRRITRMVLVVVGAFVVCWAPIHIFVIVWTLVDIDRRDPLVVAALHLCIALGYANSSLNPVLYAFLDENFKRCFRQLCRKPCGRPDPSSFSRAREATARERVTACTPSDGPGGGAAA

[9] = biological target: 5-hydroxytryptamine receptor 5A (Homo sapiens, UniProt P47898); test: Counterscreen for agonists of OPRM1-OPRD1 heterodimerization: luminescence-based cell-based high throughput dose response assay to identify agonists of 5-hydroxytryptamine (serotonin) 5A receptor (HTR5A). [Related pubchem assays (depositor defined):AID504326, AID504355, AID504692, AID504904, AID504905]; type: functional
Sequence of 5-hydroxytryptamine receptor 5A (P47898 whole entry): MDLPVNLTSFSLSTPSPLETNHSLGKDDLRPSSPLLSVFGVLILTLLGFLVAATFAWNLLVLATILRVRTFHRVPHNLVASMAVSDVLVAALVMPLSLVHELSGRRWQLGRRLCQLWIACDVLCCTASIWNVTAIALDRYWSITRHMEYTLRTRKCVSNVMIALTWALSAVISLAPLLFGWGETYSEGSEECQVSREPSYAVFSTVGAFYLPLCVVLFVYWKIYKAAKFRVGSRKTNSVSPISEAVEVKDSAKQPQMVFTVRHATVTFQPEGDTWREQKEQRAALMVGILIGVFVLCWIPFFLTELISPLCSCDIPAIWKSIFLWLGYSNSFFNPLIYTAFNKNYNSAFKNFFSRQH

[10] = biological target: Cytochrome P450 2D6 (Homo sapiens, UniProt P10635);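 also: CYP2D6 member of a cytochrome P450 panel assay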
Sequence of Cytochrome P450 2D6 (P10635 whole entry): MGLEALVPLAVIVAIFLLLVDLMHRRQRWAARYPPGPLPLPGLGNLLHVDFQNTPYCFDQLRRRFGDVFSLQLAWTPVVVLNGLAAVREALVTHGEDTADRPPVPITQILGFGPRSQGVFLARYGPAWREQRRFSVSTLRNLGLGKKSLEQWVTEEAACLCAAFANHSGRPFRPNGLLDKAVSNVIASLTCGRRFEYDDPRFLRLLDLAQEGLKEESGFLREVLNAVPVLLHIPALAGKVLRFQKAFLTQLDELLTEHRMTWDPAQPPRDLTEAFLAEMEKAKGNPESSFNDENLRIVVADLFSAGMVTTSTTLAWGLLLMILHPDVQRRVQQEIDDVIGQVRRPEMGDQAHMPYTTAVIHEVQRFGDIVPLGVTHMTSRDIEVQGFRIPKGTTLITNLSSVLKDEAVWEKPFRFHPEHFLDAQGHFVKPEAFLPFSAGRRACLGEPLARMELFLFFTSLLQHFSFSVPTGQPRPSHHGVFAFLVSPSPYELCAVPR

[11] = biological target: T3, Cytochrome P450 3A4; remark: listed apart in the source
[12] = biological target: DNA dC->dU-editing enzyme APOBEC-3G (Homo sapiens, UniProt Q9HC16); type: functional;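 also: Dose-response counterscreen measuring inhibition of APOBEC3G DNA deaminase activity, run while confirming APOBEC3A inhibitors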
Sequence of DNA dC->dU-editing enzyme APOBEC-3G (Q9HC16 whole entry): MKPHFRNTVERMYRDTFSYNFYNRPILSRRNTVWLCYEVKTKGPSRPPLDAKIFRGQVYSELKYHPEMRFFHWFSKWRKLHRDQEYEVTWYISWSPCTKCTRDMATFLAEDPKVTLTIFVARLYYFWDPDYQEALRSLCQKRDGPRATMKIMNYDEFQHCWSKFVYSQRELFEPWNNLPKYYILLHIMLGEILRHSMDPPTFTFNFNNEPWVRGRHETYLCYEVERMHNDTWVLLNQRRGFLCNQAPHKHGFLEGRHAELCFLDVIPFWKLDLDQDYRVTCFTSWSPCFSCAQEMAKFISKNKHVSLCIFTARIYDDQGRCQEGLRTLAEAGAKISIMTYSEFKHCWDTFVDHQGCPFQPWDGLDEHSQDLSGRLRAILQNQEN

[13] = biological target: DNA dC->dU-editing enzyme APOBEC-3A (Homo sapiens, UniProt P31941); test: Dose Response confirmation of small molecule APOBEC3A DNA Deaminase Inhibitors via a fluorescence-based single-stranded DNA deaminase assay. [Related pubchem assays (depositor defined):AID493011, AID493024]; type: functional
Sequence of DNA dC->dU-editing enzyme APOBEC-3A (P31941 whole entry): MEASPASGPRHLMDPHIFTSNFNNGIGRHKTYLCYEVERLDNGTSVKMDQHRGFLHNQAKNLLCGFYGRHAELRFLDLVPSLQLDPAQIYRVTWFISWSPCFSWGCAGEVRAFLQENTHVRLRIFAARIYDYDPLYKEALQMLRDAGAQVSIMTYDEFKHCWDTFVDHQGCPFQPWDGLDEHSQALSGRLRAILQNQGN

[14] = biological target: T1, Short transient receptor potential channel 4; test: calcium entry via TRPC4 opening agents – cell-based, HEK293 TRPC4/mu-opioid, Fluo-4 calcium, dose response (AID 434937); type: functional
[15] = biological target: T4, Protein skinhead-1 (Caenorhabditis elegans, UniProt P34707); type: functional
T4 sequence (P34707 whole entry): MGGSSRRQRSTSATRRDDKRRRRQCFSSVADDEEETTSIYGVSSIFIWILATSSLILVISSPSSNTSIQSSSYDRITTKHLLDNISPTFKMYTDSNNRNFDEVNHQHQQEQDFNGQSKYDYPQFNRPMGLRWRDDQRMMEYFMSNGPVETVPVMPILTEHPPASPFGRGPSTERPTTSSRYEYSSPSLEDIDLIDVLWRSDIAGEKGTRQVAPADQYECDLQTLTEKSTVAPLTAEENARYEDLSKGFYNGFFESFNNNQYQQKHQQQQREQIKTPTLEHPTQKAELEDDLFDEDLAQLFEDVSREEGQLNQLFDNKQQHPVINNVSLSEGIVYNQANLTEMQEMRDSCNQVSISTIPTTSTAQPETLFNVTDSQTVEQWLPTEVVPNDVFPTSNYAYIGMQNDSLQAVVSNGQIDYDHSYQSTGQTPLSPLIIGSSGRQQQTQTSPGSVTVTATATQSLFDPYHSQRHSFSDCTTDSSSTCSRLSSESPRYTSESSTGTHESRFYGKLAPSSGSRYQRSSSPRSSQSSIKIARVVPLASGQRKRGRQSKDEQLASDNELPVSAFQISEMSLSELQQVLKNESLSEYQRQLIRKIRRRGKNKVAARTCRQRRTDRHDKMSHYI

[16] = biological target: Dual specificity tyrosine-phosphorylation-regulated kinase 1A (Rattus norvegicus, UniProt Q63470); type: biochemical, Homo sapiens

Structure (SMILES): c1ccc(NC(=NCc2ccco2)c2ccccc2)cc1
AC50 [1]: 47.6 µM (active)
EC50 [2]: 18.8 µM (active)

Structure (SMILES): CCOC(=O)N1CCC(NC(=O)c2oc3c(c2C)-c2n[nH]cc2CC3)CC1
AC50 [1]: 67 µM (active)
AC50 [3]: 18.4 µM (active)

EC50 [4]: 22.2 µM (active)
EC50 [5]: 17.9 µM (inactive)
Structure (SMILES): Cc1ccc(N2C(=O)C3C(C(=O)c4ccccc4)=NN(c4ccccc4)C3C2=O)cc1 (configuration not stated)

AC50 [6]: inconclusive
Structure (SMILES): N#Cc1cccc(-c2nc3cnc(Oc4cccc(Cl)c4)nc3n(C3CC3)c2=O)c1

EC50 [7]: > 92.5 µM (inactive)
EC50 [8]: > 92.5 µM (inactive)
EC50 [9]: > 92.5 µM (inactive)
Structure (SMILES): OC(CNCCC(c1ccccc1)c1ccccc1)COc1ccccc1 (configuration not stated)

AC50 [10]: inconclusive
AC50 [11]: 5.01 µM (inconclusive)
Structure (SMILES): CO[C@@H]1COC(=O)[C@@H](C)NC(=O)C/C=C\[C@@H](C)[C@H](NS(=O)(=O)c2ccc(C)cc2)COC(=O)[C@H](C)NC(=O)C/C=C\[C@H]1C

Structure (SMILES): COC(=O)C1=C(C)N(Cc2ccccc2)C(NCCc2ccccn2)=N[C@H]1c1cccc(F)c1
IC50 [12]: 4.79 µM (active)
IC50 [13]: 2.67 µM (active)
EC50 [14]: 5.96 µM (active)
IC50 [15]: > 100 µM (inactive)

AC50 [16]: 3.74 µM (active)
Structure (SMILES): O=c1oc2c(-c3cccc(F)c3)cc(O)cc2s1
